Assay results taken from publication PMC10156769, “The novel anti-cancer fluoropyrimidine NUC-3373 is a potent inhibitor of thymidylate synthase and an effective DNA-damaging agent” (Cancer Chemotherapy and Pharmacology, 2023).

Key:
[1] = biological target: T1, dUTPase (Deoxyuridine triphosphate nucleotidohydrolase) (Homo sapiens, UniProt P33316); test: EnzChek pyrophosphate coupled assay, recombinant human dUTPase, product inhibition; format: biochemical
T1 construct: gene DUT
T1 sequence (P33316 70-252): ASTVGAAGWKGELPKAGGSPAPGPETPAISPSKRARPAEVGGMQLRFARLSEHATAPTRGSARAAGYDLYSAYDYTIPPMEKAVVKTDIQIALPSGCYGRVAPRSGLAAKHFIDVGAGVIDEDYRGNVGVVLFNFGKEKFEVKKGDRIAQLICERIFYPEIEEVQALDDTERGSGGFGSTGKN

[2] = biological target: T2, thymidylate synthase (TS) (Homo sapiens, UniProt P04818); test: western blot shift of TS ([…] to […] kDa, ternary complex) in HCT116 and SW480 cells treated with NUC-3373 or 5-FU; format: cell-based
T2 construct: gene TYMS
T2 sequence (P04818 2-313): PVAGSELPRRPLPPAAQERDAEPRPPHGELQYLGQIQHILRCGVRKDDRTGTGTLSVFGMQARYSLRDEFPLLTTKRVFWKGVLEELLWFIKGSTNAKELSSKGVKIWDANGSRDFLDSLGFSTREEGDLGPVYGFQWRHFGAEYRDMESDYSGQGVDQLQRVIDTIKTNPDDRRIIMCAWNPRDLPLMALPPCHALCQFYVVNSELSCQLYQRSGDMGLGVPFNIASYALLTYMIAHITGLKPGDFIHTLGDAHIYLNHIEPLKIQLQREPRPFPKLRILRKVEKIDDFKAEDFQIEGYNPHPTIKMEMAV

Compound	Ki [1] [µM]	western blot shift of TS (36 to 38 kDa, ternary complex) in HCT116 and SW480 cel [2]
O=c1[nH]c(=O)n([C@H]2C[C@H](O)[C@@H](COP(=O)(O)O)O2)cc1F [FdUMP]	0.62 ± 0.05	The binding of FdUMP to TS, causing inhibition of the enzyme, is determined by the presence of an upper band
O=c1ccn([C@H]2C[C@H](O)[C@@H](COP(=O)(O)O)O2)c(=O)[nH]1 [dUMP]	5.8 ± 1.4	–
